From patent US20170253607A1, “LONG-ACTING HIV PROTEASE INHIBITOR” (Shionogi & Co., Ltd., priority 2014, published 2017) come the findings set out here.

This assay concerns the target HIV-1 PR (Human immunodeficiency virus type 1 group M subtype B, UniProt P04585). In words: HIV-protease inhibitory activity assay (FRET peptide substrate). Format: biochemical. The note with it: Test Example 1. In outline: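 Inhibition of HIV-1 protease was measured as loss of fluorescence dequenching of a HiLyte Fluor 488/QXL 520 peptide at 2 μmol/L, pH 4.8, room temperature, 60 minute reaction. IC50 was derived by nonlinear four-parameter fitting.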
As to `COc1ccc(S(=O)(=O)N(CC(C)C)CC(O)C(Cc2ccc(N(C)CC3CCCC3c3sc4c(c3C(=O)O)CC(C)(C)CC4)cc2)NC(=O)OC2COC3(C)OCCC23)cc1` (centres unmarked) [Compound I-470], the IC50 stood at 2.67 nM. For `COc1ccc(S(=O)(=O)N(CC2CC2)CC(O)C(Cc2ccc(NCc3ccccc3-c3sc4c(c3C(=O)O)CC(C)(C)CC4)cc2)NC(=O)OC2COC3(C)OCCC23)cc1` (centres unmarked) [Compound I-472], it took 2.27 nM to reach half-maximal inhibition (IC50). The value for `CC(C)CN(CC(O)C(Cc1ccc(NCc2ccccc2-c2sc3c(c2C(=O)O)CC(C)(C)CC3)cc1)NC(=O)OC1COC2(C)OCCC12)S(=O)(=O)c1ccc(N)cc1` (centres unmarked) [Compound I-476] was 1.99 nM.

`COc1ccc(S(=O)(=O)N(CC(C)C)CC(O)C(Cc2ccc(N(C)Cc3ncccc3-c3ccccc3-c3sc4c(c3C(=O)O)CC(C)(C)CC4)cc2)NC(=O)OC2COC3(C)OCCC23)cc1` (centres unmarked) [Compound I-477] came in with an IC50 of 2 nM. With `COc1ccc(S(=O)(=O)N(CC(C)C)CC(O)C(Cc2ccc(Nc3cccc(-c4sc5c(c4C(=O)O)CC(C)(C)CC5)c3)cc2)NC(=O)OC2COC3(C)OCCC23)cc1` (centres unmarked) [Compound I-478], the IC50 came out at 2.25 nM. Turning to `COc1ccc(S(=O)(=O)N(CC(C)C)CC(O)C(Cc2ccc(N(C)c3cccc(-c4sc5c(c4C(=O)O)CC(C)(C)CC5)c3)cc2)NC(=O)OC2COC3(C)OCCC23)cc1` (centres unmarked) [Compound I-479], half-maximal inhibition (IC50) was put at 2.49 nM. As for `CC(C)CN(CC(O)C(Cc1ccc(NCc2ccccc2-c2sc3c(c2C(=O)O)CC(C)(C)CC3)cc1)NC(=O)OC1COC2(C)OCCC12)S(=O)(=O)c1ccc2nc(O)sc2c1` (centres unmarked) [Compound I-482], the figure is 2.27 nM.

`COc1ccc(S(=O)(=O)N(CC(C)C)CC(O)C(Cc2ccc(N(Cc3ccccn3)Cc3ccccc3-c3sc4c(c3C(=O)O)CC(C)(C)CC4)cc2)NC(=O)OC2COC3(C)OCCC23)cc1` (centres unmarked) [Compound I-486] came in with an IC50 of 4.59 nM. In turn, `COc1ccc(S(=O)(=O)N(CC(C)C)CC(O)C(Cc2ccc(N(C)Cc3ccncc3-c3sc4c(c3C(=O)O)CC(C)(C)CC4)cc2)NC(=O)OC2COC3(C)OCCC23)cc1` (centres unmarked) [Compound I-489] yielded a half-maximal inhibitory concentration (IC50) of 1.81 nM.

For the compound `COc1ccc(S(=O)(=O)N(CC(C)C)CC(O)C(Cc2ccc(N(C)Cc3cccc(F)c3-c3sc4c(c3C(=O)O)CC(C)(C)CC4)cc2)NC(=O)OC2COC3(C)OCCC23)cc1` (centres unmarked) [Compound I-493], half-maximal inhibition (IC50) was put at 2.43 nM. In turn, `COc1ccc(S(=O)(=O)N(CC(C)C)CC(O)C(Cc2ccc(N(C)Cc3cccc(-c4sc5c(c4C(=O)O)CC(C)(C)CC5)n3)cc2)NC(=O)OC2COC3(C)OCCC23)cc1` (centres unmarked) [Compound I-494] returned an IC50 of 1.46 nM. Compound `COc1ccc(S(=O)(=O)N(CC(C)C)CC(O)C(Cc2ccc(NCc3ccccc3-c3c(C(=O)O)[nH]c4c3CCCC4=O)cc2)NC(=O)OC2COC3(C)OCCC23)cc1` (centres unmarked) [Compound I-495] returned a half-inhibitory concentration (IC50) of 1.48 nM.

Consider `COc1ccc(S(=O)(=O)N(CC(C)C)CC(O)C(Cc2ccc(NCc3ccccc3-c3cc4c(cc3C(=O)O)OCCO4)cc2)NC(=O)OC2COC3(C)OCCC23)cc1` (centres unmarked) [Compound I-496], for which the 50% inhibitory concentration (IC50) stood at 1.81 nM. Consider `COc1ccc(S(=O)(=O)N(CC(C)C)CC(O)C(Cc2ccc(NCc3ccccc3-c3ccccc3C(=O)O)cc2)NC(=O)OC2COC3(C)OCCC23)cc1` (centres unmarked) [Compound I-497], for which half-maximal inhibition (IC50) required 1.96 nM. On to `COc1ccc(S(=O)(=O)N(CC(C)C)CC(O)C(Cc2ccc(NCc3ccccc3-c3ccsc3C(=O)O)cc2)NC(=O)OC2COC3(C)OCCC23)cc1` (centres unmarked) [Compound I-498], for which the IC50 came out at 1.83 nM.

Turning to `COc1ccc(S(=O)(=O)N(CC(C)C)CC(O)C(Cc2ccc(NCc3ccccc3-c3ccc(OC(F)(F)F)cc3C(=O)O)cc2)NC(=O)OC2COC3(C)OCCC23)cc1` (centres unmarked) [Compound I-499], 1.73 nM corresponded to half-maximal inhibition (IC50). The compound `COc1ccc(S(=O)(=O)N(CC(C)C)CC(O)C(Cc2ccc(NCc3ccccc3-c3c(C(=O)O)cnc4ccc(OC)cc34)cc2)NC(=O)OC2COC3(C)OCCC23)cc1` (centres unmarked) [Compound I-500] returned an IC50 of 1.78 nM.

`COc1ccc(S(=O)(=O)N(CC(C)C)CC(O)C(Cc2ccc(NCc3ccccc3-c3c(C(=O)O)cnc4ccsc34)cc2)NC(=O)OC2COC3(C)OCCC23)cc1` (centres unmarked) [Compound I-501]: the midpoint of inhibition, the IC50, lay at 1.82 nM. `COc1ccc(S(=O)(=O)N(CC(C)C)CC(O)C(Cc2ccc(NCc3ccccc3-c3cccc4[nH]c(C(=O)O)cc34)cc2)NC(=O)OC2COC3(C)OCCC23)cc1` (centres unmarked) [Compound I-502] registered an IC50 of 1.87 nM. The value for `COc1ccc(S(=O)(=O)N(CC(C)C)CC(O)C(Cc2ccc(NCc3ccccc3-c3ccc4cc(C(=O)O)[nH]c4c3)cc2)NC(=O)OC2COC3(C)OCCC23)cc1` (centres unmarked) [Compound I-503] was 1.68 nM; that for `COc1ccc(S(=O)(=O)N(CC(C)C)CC(O)C(Cc2ccc(NCc3ccccc3-c3c(C(=O)O)cnc4sccc34)cc2)NC(=O)OC2COC3(C)OCCC23)cc1` (centres unmarked) [Compound I-504] was 1.93 nM; that for `COc1ccc(S(=O)(=O)N(CC(C)C)CC(O)C(Cc2ccc(NCc3ccccc3-c3c(C(=O)O)cnc4onc(C)c34)cc2)NC(=O)OC2COC3(C)OCCC23)cc1` (centres unmarked) [Compound I-505] was 1.55 nM. As for `COc1ccc(S(=O)(=O)N(CC(C)C)CC(O)C(Cc2ccc(NCc3ccccc3-c3c(C(=O)O)[nH]c4ccc(OC)cc34)cc2)NC(=O)OC2COC3(C)OCCC23)cc1` (centres unmarked) [Compound I-506], the figure is 1.7 nM; as for `COc1ccc(S(=O)(=O)N(CC(C)C)CC(O)C(Cc2ccc(N3CC4CC(Oc5ccccc5-c5sc6c(c5C(=O)O)CC(C)(C)CC6)CC4C3)cc2)NC(=O)OC2COC3(C)OCCC23)cc1` (centres unmarked) [Compound I-508], 8.48 nM. The compound `COc1ccc(S(=O)(=O)N(CC(C)C)CC(O)C(Cc2ccc(N(C)Cc3ncccc3-c3cccc(-c4sc5c(c4C(=O)O)CC(C)(C)CC5)c3)cc2)NC(=O)OC2COC3(C)OCCC23)cc1` (centres unmarked) [Compound I-512] yielded a half-maximal inhibitory concentration (IC50) of 1.63 nM.

As for `COc1ccc(S(=O)(=O)N(CC(C)C)CC(O)C(Cc2ccc(NCCn3nc4c(c3C(=O)O)CC(C)(C)CC4)cc2)NC(=O)OC2COC3(C)OCCC23)cc1` (centres unmarked) [Compound I-516], the 50% inhibitory concentration (IC50) is 2.29 nM. For the compound `COc1ccc(S(=O)(=O)N(CC(C)C)CC(O)C(Cc2ccc(N(C)CCn3nc4c(c3C(=O)O)CC(C)(C)CC4)cc2)NC(=O)OC2COC3(C)OCCC23)cc1` (centres unmarked) [Compound I-517], half-maximal inhibition (IC50) required 2.56 nM.

With `COc1ccc(S(=O)(=O)N(CC(C)C)CC(O)C(Cc2ccc(NCCOc3ccc(-c4sc5c(c4C(=O)O)CC(C)(C)CC5)c(C)c3)cc2)NC(=O)OC2COC3(C)OCCC23)cc1` (centres unmarked) [Compound I-518], the IC50 came to 5.63 nM. The compound `COc1ccc(S(=O)(=O)N(CC(C)C)CC(O)C(Cc2ccc(-n3cccc3)cc2)NC(=O)OC2COC3(C)OCCC23)cc1` (centres unmarked) [Compound I-521] came in with an IC50 of 2.84 nM.

With `COc1ccc(S(=O)(=O)N(CC(C)C)CC(O)C(Cc2ccc(N3CCC(c4ccccc4-c4sc5c(c4C(=O)O)CC(C)(C)CC5)C3)cc2)NC(=O)OC2COC3(C)OCCC23)cc1` (centres unmarked) [Compound I-523], the IC50 came out at 9.44 nM. Consider `COc1ccc(S(=O)(=O)N(CC(C)C)CC(O)C(Cc2ccc(NCC3=C(c4sc5c(c4C(=O)O)CC(C)(C)CC5)COC3)cc2)NC(=O)OC2COC3(C)OCCC23)cc1` (centres unmarked) [Compound I-527], for which the 50% inhibitory concentration (IC50) was determined as 1.99 nM.

`COc1ccc(S(=O)(=O)N(CC(C)C)CC(O)C(Cc2ccc(NCc3cccc(-c4ccccc4)c3-c3sc4c(c3C(=O)O)CC(C)(C)CC4)cc2)NC(=O)OC2COC3(C)OCCC23)cc1` (centres unmarked) [Compound I-529]: the IC50 amounted to 4.98 nM.

One may read the IC50 as the concentration at which inhibition is half-maximal. Read a high IC50 as weaker potency.
